Measured values reported in ChEMBL document CHEMBL1201862, “PubChem BioAssay data set” (2004).
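Dose response: 5 concentrations. Exposure: 48 h. Format: 96-well plates. Endpoint: linear interpolation; highest concentration if not reached. GI50: concentration for 50% inhibition of growth.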 Activity calls are given as the source filed them. Cut-off read from the data, not from the text of the source: active = GI50 up to about 1.1 µM and inactive = higher.

Experiments:
Assay in all cases: NCI tumour cell line growth inhibition, 48 h
EKVX = system: EKVX
DMS-273 = system: DMS-273
SF-295 = system: SF-295
SK-MEL-28 = system: SK-MEL-28
K562 = system: K562
MOLT-4 = system: MOLT-4
HCC 2998 = system: HCC 2998
COLO 205 = system: COLO 205
IGROV-1 = system: IGROV-1
HOP-62 = system: HOP-62
UO-31 = system: UO-31
NCI-H522 = system: NCI-H522
HCT-15 = system: HCT-15
KM12 = system: KM12
RXF 631 = system: RXF 631
SF-539 = system: SF-539
DLD-1 = system: DLD-1
TK-10 = system: TK-10
SNB-78 = system: SNB-78
UACC-62 = system: UACC-62
HOP-18 = system: HOP-18
HT-29 = system: HT-29
SW-620 = system: SW-620
Malme-3M = system: Malme-3M
OVCAR-5 = system: OVCAR-5
CAKI-1 = system: CAKI-1
HL-60 = system: HL-60
RPMI-8226 = system: RPMI-8226
UACC-257 = system: UACC-257
786-0 = system: 786-0
NCI-H226 = system: NCI-H226
KM-20L2 = system: KM-20L2
SK-MEL-5 = system: SK-MEL-5
OVCAR-8 = system: OVCAR-8
SK-MEL-2 = system: SK-MEL-2
ACHN = system: ACHN
A549 = system: A549
M14 = system: M14
LXFL 529 = system: LXFL 529
DMS-114 = system: DMS-114
HOP-92 = system: HOP-92
RXF 393 = system: RXF 393
SK-OV-3 = system: SK-OV-3
OVCAR-3 = system: OVCAR-3
A498 = system: A498
SN12C = system: SN12C
HCT-116 = system: HCT-116
NCI-H460 = system: NCI-H460
XF498 = system: XF498
LOX IMVI = system: LOX IMVI
SF-268 = system: SF-268
CCRF-CEM = system: CCRF-CEM
U-251 = system: U-251
NCI-H23 = system: NCI-H23
SNB-75 = system: SNB-75
SNB-19 = system: SNB-19
OVCAR-4 = system: OVCAR-4
M19-MEL = system: M19-MEL

Question: What does the source list for `Cc1ccccc1NC(=O)C(=O)C(C#N)c1ccc(Cl)cc1` (stereo unspecified)?
Answer: GI50 (EKVX): > 100 µM (inactive); GI50 (DMS-273): 33 µM (inactive); GI50 (SF-295): 64.3 µM (inactive); GI50 (SK-MEL-28): 67.5 µM (inactive); GI50 (K562): 29.1 µM (inactive); GI50 (MOLT-4): 52.6 µM (inactive); GI50 (HCC 2998): 19.6 µM (inactive); GI50 (COLO 205): 31.3 µM (inactive); GI50 (IGROV-1): 63.7 µM (inactive); GI50 (HOP-62): > 100 µM (inactive); GI50 (UO-31): 57.7 µM (inactive); GI50 (NCI-H522): 50.7 µM (inactive); GI50 (HCT-15): 18.7 µM; GI50 (KM12): 44.6 µM (inactive); GI50 (RXF 631): 34.7 µM (inactive); GI50 (SF-539): 30.4 µM (inactive); GI50 (DLD-1): 41.8 µM (inactive); GI50 (TK-10): 81.5 µM (inactive); GI50 (SNB-78): > 100 µM (inactive); GI50 (UACC-62): 37.4 µM (inactive); GI50 (HOP-18): 47.8 µM (inactive); GI50 (HT-29): 28.8 µM (inactive); GI50 (SW-620): 15.4 µM (inactive); GI50 (Malme-3M): > 100 µM (inactive); GI50 (OVCAR-5): 54 µM (inactive); GI50 (CAKI-1): > 100 µM (inactive); GI50 (HL-60): 27.8 µM (inactive); GI50 (RPMI-8226): 22.6 µM (inactive); GI50 (UACC-257): > 100 µM (inactive); GI50 (786-0): 28 µM (inactive); GI50 (NCI-H226): 78.5 µM (inactive); GI50 (KM-20L2): 33.6 µM (inactive); GI50 (SK-MEL-5): 41.8 µM (inactive); GI50 (OVCAR-8): 46.6 µM (inactive); GI50 (SK-MEL-2): 56.5 µM (inactive); GI50 (ACHN): 74.1 µM (inactive); GI50 (A549): 95.5 µM (inactive); GI50 (M14): 45.9 µM (inactive); GI50 (LXFL 529): 51.4 µM (inactive); GI50 (DMS-114): 39.8 µM (inactive); GI50 (HOP-92): 45.8 µM (inactive); GI50 (RXF 393): > 100 µM (inactive); GI50 (SK-OV-3): > 100 µM (inactive); GI50 (OVCAR-3): > 100 µM (inactive); GI50 (A498): > 100 µM (inactive); GI50 (SN12C): 44.9 µM (inactive); GI50 (HCT-116): 34 µM (inactive); GI50 (NCI-H460): 21.3 µM (inactive); GI50 (XF498): 33.8 µM (inactive); GI50 (LOX IMVI): 17.3 µM (inactive); GI50 (SF-268): 69.8 µM (inactive); GI50 (CCRF-CEM): 64 µM (inactive); GI50 (U-251): 51.1 µM (inactive); GI50 (NCI-H23): 56.5 µM (inactive); GI50 (SNB-75): > 100 µM (inactive); GI50 (SNB-19): 63.2 µM (inactive)

Question: For `CC(/C=C1\CCC(CN(C)C)C1=O)c1cccc(Br)c1` (stereo unspecified), which GI50 (EKVX) is on record?
Answer: 20.9 µM (inactive)

Question: What about the GI50 (SF-295) of the same compound?
Answer: 22.2 µM (inactive)

Question: What about the GI50 (SK-MEL-28) of the same compound?
Answer: 17 µM (inactive)

Question: And the GI50 (K562)?
Answer: 2.77 µM (inactive)

Question: And the GI50 (MOLT-4)?
Answer: 3.85 µM (inactive)

Question: What about the GI50 (HCC 2998) of the same compound?
Answer: 20.4 µM (inactive)

Question: What about the GI50 (COLO 205) of the same compound?
Answer: 17.9 µM (inactive)

Question: And the GI50 (IGROV-1)?
Answer: 13.8 µM (inactive)

Question: And the GI50 (HOP-62)?
Answer: 22.7 µM (inactive)

Question: What about the GI50 (UO-31) of the same compound?
Answer: 19.1 µM (inactive)

Question: What about the GI50 (NCI-H522) of the same compound?
Answer: 8.05 µM (inactive)

Question: What about the GI50 (HCT-15) of the same compound?
Answer: 14.9 µM

Question: And the GI50 (KM12)?
Answer: 10.1 µM (inactive)

Question: What about the GI50 (RXF 631) of the same compound?
Answer: 7.91 µM (inactive)

Question: What about the GI50 (SF-539) of the same compound?
Answer: 18 µM (inactive)

Question: And the GI50 (DLD-1)?
Answer: 9.57 µM (inactive)

Question: What about the GI50 (TK-10) of the same compound?
Answer: 15.7 µM (inactive)

Question: And the GI50 (SNB-78)?
Answer: 16.4 µM (inactive)

Question: And the GI50 (UACC-62)?
Answer: 17.3 µM (inactive)

Question: What about the GI50 (HOP-18) of the same compound?
Answer: 18.7 µM (inactive)

Question: And the GI50 (HT-29)?
Answer: 15.1 µM (inactive)

Question: What about the GI50 (SW-620) of the same compound?
Answer: 8.18 µM (inactive)

Question: What about the GI50 (Malme-3M) of the same compound?
Answer: 17.8 µM (inactive)

Question: And the GI50 (OVCAR-5)?
Answer: 22.8 µM (inactive)

Question: What about the GI50 (CAKI-1) of the same compound?
Answer: 8.15 µM (inactive)

Question: What about the GI50 (OVCAR-4) of the same compound?
Answer: 17 µM (inactive)

Question: What about the GI50 (HL-60) of the same compound?
Answer: 3.06 µM (inactive)

Question: And the GI50 (RPMI-8226)?
Answer: 2 µM (inactive)

Question: What about the GI50 (UACC-257) of the same compound?
Answer: 17.3 µM (inactive)

Question: And the GI50 (786-0)?
Answer: 3.41 µM (inactive)

Question: What about the GI50 (NCI-H226) of the same compound?
Answer: 22.3 µM (inactive)

Question: What about the GI50 (KM-20L2) of the same compound?
Answer: 21.4 µM (inactive)

Question: What about the GI50 (SK-MEL-5) of the same compound?
Answer: 13.8 µM (inactive)

Question: What about the GI50 (OVCAR-8) of the same compound?
Answer: 18.2 µM (inactive)

Question: What about the GI50 (SK-MEL-2) of the same compound?
Answer: 16.7 µM (inactive)

Question: What about the GI50 (ACHN) of the same compound?
Answer: 13.4 µM (inactive)

Question: What about the GI50 (A549) of the same compound?
Answer: 31.3 µM (inactive)

Question: What about the GI50 (M14) of the same compound?
Answer: 14.9 µM (inactive)

Question: And the GI50 (LXFL 529)?
Answer: 5.62 µM (inactive)

Question: And the GI50 (DMS-114)?
Answer: 19.7 µM (inactive)

Question: What about the GI50 (HOP-92) of the same compound?
Answer: 18.2 µM (inactive)

Question: What about the GI50 (RXF 393) of the same compound?
Answer: 13.3 µM (inactive)

Question: What about the GI50 (SK-OV-3) of the same compound?
Answer: 65.2 µM (inactive)

Question: And the GI50 (OVCAR-3)?
Answer: 17 µM (inactive)

Question: And the GI50 (A498)?
Answer: 26.5 µM (inactive)

Question: What about the GI50 (SN12C) of the same compound?
Answer: 22 µM (inactive)

Question: What about the GI50 (HCT-116) of the same compound?
Answer: 8.59 µM (inactive)

Question: And the GI50 (NCI-H460)?
Answer: 29.6 µM (inactive)

Question: And the GI50 (M19-MEL)?
Answer: 20.7 µM (inactive)

Question: What about the GI50 (XF498) of the same compound?
Answer: 20.6 µM (inactive)

Question: What about the GI50 (SF-268) of the same compound?
Answer: 21.7 µM (inactive)

Question: And the GI50 (CCRF-CEM)?
Answer: 2.52 µM (inactive)

Question: What about the GI50 (U-251) of the same compound?
Answer: 18.2 µM (inactive)

Question: And the GI50 (NCI-H23)?
Answer: 19.5 µM (inactive)

Question: What about the GI50 (SNB-19) of the same compound?
Answer: 26 µM (inactive)
